Reference: publication PMC12721191, “Oxidative hypoxia drives TGF-β1–induced fibrosis under normoxia” (Redox Biology, 2025)

How the values were obtained:
[1] = system: BLM-induced pulmonary fibrosis; experiment: BLM-induced pulmonary fibrosis, Ashcroft scoring of lung sections; format: in vivo, ICR mice; conditions: BLM 30 mg/kg intratracheal; ACF-2 10 mg/kg i.p. every 2 days or NIDB 60 mg/kg/day in drinking water, 2 weeks; BLM-only 6.2
Experimental: Male ICR mice received BLM (30 mg/kg, intratracheal). […] Fixed left lung lobes were paraffin-embedded, sectioned (4 μm), and stained with H&E or MT. A blinded pathologist graded pulmonary fibrosis on the 1-8 Ashcroft scale; representative images illustrate typical lesions. Colon samples were processed by the swiss-roll method, stained with H&E, and scored for inflammation and erosion, which were combined into a composite histological score. All animal studies were approved by the Institutional Animal Care and Use Committee of Jeju National University (Approval ID: 2024-0058) and conducted in compliance with institutional guidelines. Male ICR mice (6 weeks old, average body weight 27 g) were purchased from […] (South Korea) and housed under controlled temperature (22 ± 2 °C) and humidity (0.0 ± 15.0 %) on a 12 hr light-dark cycle with free access to food and water. […] Lung tissue: Left lung lobes were fixed in 4% paraformaldehyde for 24 h, dehydrated, and embedded in paraffin. Sections of 4 μm thickness were prepared, deparaffinized with xylene, and rehydrated in a graded ethanol series. H&E staining was performed using hematoxylin and eosin solutions, respectively. The severity of fibrosis was graded according to the Ashcroft scale (1-8), as evaluated by a pathologist blindly. Representative H&E images were chosen to illustrate the most characteristic pathology. […]

MRC-5 = experiment: Western blot of fibrosis markers in MRC-5; format: cell-based, human; conditions: MRC-5, TGF-β1 and ACF-2 co-treatment
Experimental: RIPA lysates (BCA-normalized) were resolved by SDS-PAGE, transferred to nitrocellulose, and probed with the antibodies listed in Appendix S2. Protocols & Materials.
Cells were lysed in RIPA buffer supplemented with a Protease Inhibitor Cocktail. Protein concentrations were determined using the SMART™ BCA Protein Assay Kit. Equal amounts of protein were separated by SDS-PAGE and transferred onto nitrocellulose membranes. Membranes were blocked with 5% skim milk in TBST and incubated overnight at 4 °C with the primary antibodies indicated below. Membranes were then washed and incubated for 1 hr at room temperature with the appropriate secondary antibodies. Protein bands were visualized using the Davinch Western Imaging system according to the manufacturer’s instructions. Band intensities were quantified using ImageJ software after background subtraction. The signal intensity of each target protein was normalized to the corresponding GAPDH band, and values were further normalized to the control group (set to 1 for each independent experiment).

HIF-1α–EGFP in A549 = experiment: pg-HIF-1α–EGFP fluorescence in transfected A549; format: cell-based, human; conditions: A549, co-treatment with TGF-β1
Experimental: pg-HIF-1α–EGFP was introduced via jetOPTIMUS®; GFP fluorescence was quantified 48 h post-transfection.
Transient transfection of A549 cells with pg-HIF-1α–EGFP was performed using jetOPTIMUS® according to the manufacturer’s protocol. Following 48 hr of transfection, the medium was replaced, and cells were treated with TGF-β1 at the specified concentration and duration before further analysis. Cell imaging was performed using an EVOS™ M7000 at 10×, 20×, or 40× magnification. GFP fluorescence intensity was measured using ImageJ. The mean fluorescence within the regions of interest (ROIs) was calculated after background subtraction, and values were normalized to the control condition

## COc1ccc(-c2c(-c3ccc(O)c(OC)c3)oc3cc(OC)c(OC)cc3c2=O)cc1 [ACF-2]
[1]
  Average Ashcroft score: 3.3
MRC-5
  Fibronectin, COL4A6, α-SMA (Western blot): same dose-dependent antifibrotic response
HIF-1α–EGFP in A549
  TGF-β1–induced HIF-1α–EGFP GFP fluorescence intensity: significantly attenuated the TGF-β1–induced increase in GFP fluorescence intensity
